# Test results published in article PMC5908160, “Inhibition of sperm motility in male macaques with EP055, a potential non-hormonal male contraceptive” (PLoS ONE, 2018).
# Tested on: rhesus macaque (Macaca mulatta) sperm
# Experiment: Sperm motility in rhesus males after i.v. infusion of EP055
# Assay type: in vivo
# Excerpt: Semen was collected by direct penile stimulation with a P-T Electronics Model 303 PTE 110 Volt AC stimulator equipped with electrocardiogram pad electrodes (10–35 V, 20 ms duration, 18 pulses/sec) as previously described. Semen was collected weekly for 3 weeks to establish baseline parameters for each male. Samples were inspected visually to determine sperm motility and suitability for the study. Sperm motility data from male 28106 presented in S1 Table is representative of pre-treatment samples. Immediately after collection, the seminal plug was separated from the liquefied fraction, placed into a cryovial, flash frozen in liquid nitrogen, and stored at -80C until evaluation for drug levels. Spermatozoa were prepared by centrifugation (7 min, 200 g) of the liquid portion of the ejaculate and resuspending the sperm pellet in TALP-HEPES medium containing 0.3% bovine serum albumin at 37°C. An aliquot was taken to determine concentration using a hemocytometer, percent motility and forward progression as previously described. Baseline semen samples were collected from each male twice during the week prior to treatment. Semen was collected from each male 6–8 hr, 28–30 hr, and 78 hr post-infusion of low dose EP055 (75–80 mg/kg body weight) intravenously. After a one-week recovery period, a baseline semen sample was obtained, and the following week semen samples were collected as described above after an intravenous infusion of high dose EP055 (125–130 mg/kg).
# Sperm were diluted in TALP-HEPES medium containing 0.3% bovine serum albumin to achieve 50-100 sperm per field. Videos were taken using an iPhone 6s Plus positioned 12 inches from a Dell model E170Sc 17-inch LCD monitor (1280 x 1024 pixels at 60 Hz, 0.264 mm) attached to an Olympus CK40 inverted microscope using 20x magnification (10x objective). The video camera collected images at a resolution of 1080 x 1920 pixels at 30 frames per second and 401 ppi with a typical contrast ratio of 1300:1 for at least 8 seconds. The pixel size was 1.2 microns and the videos in .mp4 or .mov format. Videos were converted to .avi format using Any Video Converter (version 6.06, http://www.anvsoft.com/any-video-converter-free, Ultimate Media Solutions, AnvSoft Inc). These files were uncompressed using VirtualDub (version 1.10.2, http://www.virtualdub.org/).
# Images were analyzed using the MTrackJ plug in (version 1.5.1, https://imagescience.org/meijering/software/mtrackj/) for ImageJ (1.51K, https://fiji.sc/). Briefly, files were imported as uncompressed .avi files, converted to greyscale and saved as .TIFF files. Each image was calibrated by measuring a representative sperm head (acrosomal apex to midpiece) using the Straight Edge Tool, using 5.18 microns as the standard length of a Macaca mulatta sperm head. Approximately 50 sperm per video were manually tracked for the entire length of the track and the mean curvilinear velocity of each track calculated using the MEASURE function. Tracks used in the final analysis were a minimum of 0.4 seconds.
# Prior to infusion of EP055, each male was sedated with ketamine by the surgical staff at ONPRC and transported to the operating room. After positioning in dorsal recumbency, the male was intubated and placed under inhalant (isoflurane) anesthesia. Bilateral intravenous catheters were placed in cephalic veins, one for infusion and one for back-up. A percutaneous arterial line was placed in the right femoral artery for direct blood pressure measurement. Invasive blood pressure, heart rate, SpO2, and respirations were monitored by the surgical staff throughout the procedure. Initially, the low doses of EP055 in 5% DMSO-PBS 7.6 was infused by i.v. at 75-80 mg/kg, using a Medfusion 3500 pump (Smiths Medical, St. Paul, MN), and was started at a low flow rate (0.6mg/kg/min). In 3 of 4 males, a 5-10% increase in blood pressure and heart rate were noted within the first 2-3 minutes of infusion of EP055. […]
# [1] = high dose 125–130 mg/kg, post-infusion
# [2] = male 25854, high dose 125–130 mg/kg, 6 hrs post-iv
# [3] = male 25854, high dose 125–130 mg/kg, 30 hrs post-iv
# [4] = male 25854, high dose 125–130 mg/kg, 78 hrs post-iv
# [5] = male 25854, high dose 125–130 mg/kg, 318 hrs post-iv
# [6] = male 25854, high dose 125–130 mg/kg, 390 hrs post-iv
# [7] = male 25854, high dose 125–130 mg/kg, 558 hrs post-iv
# [8] = male 25854, low dose 75–80 mg/kg, 6 hrs post-iv
# [9] = male 25854, low dose 75–80 mg/kg, 30 hrs post-iv
# [10] = male 25854, low dose 75–80 mg/kg, 78 hrs post-iv
# [11] = male 25854, low dose 75–80 mg/kg, 1206 hrs post-iv
# [12] = male 25854, low dose 75–80 mg/kg, 1254 hrs post-iv
# [13] = male 28043, high dose 125–130 mg/kg, 6 hrs post-iv
# [14] = male 28043, high dose 125–130 mg/kg, 28 hrs post-iv
# [15] = male 28043, high dose 125–130 mg/kg, 78 hrs post-iv
# [16] = male 28043, high dose 125–130 mg/kg, 360 hrs post-iv
# [17] = male 28043, high dose 125–130 mg/kg, 408 hrs post-iv
# [18] = male 28043, high dose 125–130 mg/kg, 528 hrs post-iv
# [19] = male 28043, low dose 75–80 mg/kg, 6 hrs post-iv
# [20] = male 28043, low dose 75–80 mg/kg, 30 hrs post-iv
# [21] = male 28043, low dose 75–80 mg/kg, 78 hrs post-iv
# [22] = male 28043, low dose 75–80 mg/kg, 480 hrs post-iv
# [23] = male 28043, low dose 75–80 mg/kg, 648 hrs post-iv
# [24] = male 28106, high dose 125–130 mg/kg, 6 hrs post-iv
# [25] = male 28106, high dose 125–130 mg/kg, 30 hrs post-iv
# [26] = male 28106, high dose 125–130 mg/kg, 78 hrs post-iv
# [27] = male 28106, high dose 125–130 mg/kg, 318 hrs post-iv
# [28] = male 28106, high dose 125–130 mg/kg, 390 hrs post-iv
# [29] = male 28106, high dose 125–130 mg/kg, 558 hrs post-iv
# [30] = male 28106, high dose 125–130 mg/kg, 894 hrs post-iv
# [31] = male 28106, low dose 75–80 mg/kg, 6 hrs post-iv
# [32] = male 28106, low dose 75–80 mg/kg, 30 hrs post-iv
# [33] = male 28106, low dose 75–80 mg/kg, 78 hrs post-iv
# [34] = male 28106, low dose 75–80 mg/kg, 342 hrs post-iv
# [35] = male 28187, high dose 125–130 mg/kg, 8 hrs post-iv
# [36] = male 28187, high dose 125–130 mg/kg, 30 hrs post-iv
# [37] = male 28187, high dose 125–130 mg/kg, 78 hrs post-iv
# [38] = male 28187, high dose 125–130 mg/kg, 414 hrs post-iv
# [39] = male 28187, low dose 75–80 mg/kg, 6 hrs post-iv
# [40] = male 28187, low dose 75–80 mg/kg, 30 hrs post-iv
# [41] = male 28187, low dose 75–80 mg/kg, 78 hrs post-iv
# [42] = male 28187, low dose 75–80 mg/kg, 582 hrs post-iv
# [43] = male 28187, low dose 75–80 mg/kg, 678 hrs post-iv
compound,measurement,setting,value
COC(=O)NNc1nc(Nc2ccc(NC(C)=O)c(O)c2)nc(SCC(=O)O)n1 [EP055],normal motility,"high dose 125–130 mg/kg, 30 hours post-infusion",no normal motility was observed
same,time at which recovery of sperm motility was obvious,[1],≤ 78 h
same,time to full recovery of sperm motility in all animals,[1],≤ 18 days
same,sperm motility,"high dose 125–130 mg/kg, within 6 hours post-infusion, mean of 4 animals",approximately 20%
same,normal sperm motility,"low dose 75–80 mg/kg, by 30 hours post-infusion, mean of 4 animals",below 32%
same,F1,[2],5%
same,F2,[2],80%
same,Static,[2],15%
same,VCL ± SEM,[2],104.6 ± 6.9 um/sec
same,Clumps,[3],Yes
same,F1,[3],10%
same,F2,[3],60%
same,Static,[3],30%
same,VCL ± SEM,[3],120.9 ± 4.8 um/sec
same,Clumps,[4],Few
same,F1,[4],20%
same,F2,[4],25%
same,Static,[4],55%
same,VCL ± SEM,[4],94.2 ± 5.0 um/sec
same,F1,[5],20%
same,F2,[5],20%
same,F3+F4,[5],10%
same,Static,[5],50%
same,F1,[6],10%
same,F3+F4,[6],70%
same,Static,[6],20%
same,VCL ± SEM,[6],93.2 ± 5.0 um/sec
same,F1,[7],1%
same,F3+F4,[7],90%
same,Static,[7],9%
same,Clumps,[8],Few
same,F1,[8],10%
same,F3+F4,[8],70%
same,Static,[8],20%
same,Clumps,[9],Fewer
same,F1,[9],5%
same,F3+F4,[9],80%
same,Static,[9],15%
same,Clumps,[10],Yes
same,F1,[10],<1%
same,F3+F4,[10],95%
same,Static,[10],5%
same,F1,[11],2%
same,F3+F4,[11],83%
same,Static,[11],15%
same,F3+F4,[12],80%
same,Static,[12],20%
same,Clumps,[13],Yes
same,F1,[13],25%
same,F3+F4,[13],50%
same,Static,[13],25%
same,Clumps,[14],Yes
same,F1,[14],99%
same,F3+F4,[14],<1%
same,VCL ± SEM,[14],72.1 ± 12.4 um/sec
same,Clumps,[15],Few
same,F1,[15],10%
same,F3+F4,[15],60%
same,Static,[15],30%
same,VCL ± SEM,[15],117.5 ± 16.3. um/sec
same,F1,[16],10%
same,F3+F4,[16],65%
same,Static,[16],25%
same,Clumps,[17],Yes
same,F1,[17],5%
same,F3+F4,[17],70%
same,Static,[17],25%
same,F2,[18],5%
same,F3+F4,[18],80%
same,Static,[18],15%
same,VCL ± SEM,[18],135.0 ± 12.6 um/sec
same,Clumps,[19],Few
same,F3+F4,[19],75%
same,Static,[19],25%
same,Clumps,[20],Yes
same,F1,[20],20%
same,F3+F4,[20],30%
same,Static,[20],50%
same,Clumps,[21],Yes
same,F1,[21],20%
same,F2,[21],50%
same,Static,[21],30%
same,F3+F4,[22],80%
same,Static,[22],20%
same,F1,[23],5%
same,F3+F4,[23],80%
same,Static,[23],15%
same,Clumps,[24],Yes
same,F1,[24],55%
same,F2,[24],25%
same,Static,[24],20%
same,VCL ± SEM,[24],72.8 ± 4.8 um/sec
same,Clumps,[25],Yes
same,F1,[25],20%
same,F2,[25],5%
same,Static,[25],75%
same,VCL ± SEM,[25],67.5 ± 7.9 um/sec
same,Clumps,[26],Yes
same,F1,[26],15%
same,F2,[26],20%
same,F3+F4,[26],10%
same,Static,[26],55%
same,VCL ± SEM,[26],80.3 ± 6.9 um/sec
same,Clumps,[27],Yes
same,F1,[27],30%
same,F2,[27],20%
same,F3+F4,[27],25%
same,Static,[27],25%
same,Clumps,[28],Yes
same,F1,[28],15%
same,F2,[28],10%
same,F3+F4,[28],50%
same,Static,[28],25%
same,Clumps,[29],Yes
same,F1,[29],15%
same,F2,[29],40%
same,F3+F4,[29],15%
same,Static,[29],30%
same,F1,[30],2%
same,F3+F4,[30],78%
same,Static,[30],20%
same,VCL ± SEM,[30],101.7 ± 4.1 um/sec
same,Clumps,[31],Yes
same,F1,[31],20%
same,F3+F4,[31],50%
same,Static,[31],30%
same,VCL ± SEM,[31],135.8 ± 6.8 um/sec
same,Clumps,[32],Yes
same,F1,[32],25%
same,F2,[32],45%
same,F3+F4,[32],5%
same,Static,[32],25%
same,VCL ± SEM,[32],105.1 ± 7.0 um/sec
same,Clumps,[33],Yes
same,F1,[33],30%
same,F2,[33],40%
same,Static,[33],30%
same,VCL ± SEM,[33],89.7 ± 6.3 um/sec
same,F1,[34],5%
same,F3+F4,[34],80%
same,Static,[34],15%
same,VCL ± SEM,[34],105.0 ± 5.8 um/sec
same,Clumps,[35],Yes
same,F1,[35],10%
same,F2,[35],50%
same,F3+F4,[35],30%
same,Static,[35],10%
same,VCL ± SEM,[35],52.9 ± 3.0 um/sec
same,Clumps,[36],Yes
same,F1,[36],10%
same,F2,[36],80%
same,Static,[36],10%
same,VCL ± SEM,[36],40.5 ± 2.7 um/sec
same,Clumps,[37],Fewer
same,F1,[37],95%
same,Static,[37],5%
same,VCL ± SEM,[37],25.4 ± 2.6 um/sec
same,Clumps,[38],Few
same,F1,[38],10%
same,F3+F4,[38],85%
same,Static,[38],5%
same,VCL ± SEM,[38],87.3 ± 6.2 um/sec
same,Clumps,[39],Few
same,F1,[39],35%
same,F3+F4,[39],65%
same,Clumps,[40],Yes
same,F3+F4,[40],10%
same,Static,[40],90%
same,Clumps,[41],Yes
same,F1,[41],95%
same,F3+F4,[41],5%
same,F1,[42],95%
same,F3+F4,[42],5%
same,F3+F4,[43],80%
same,Static,[43],20%
same,VCL ± SEM,[43],109.4 ± 13.8 um/sec
same,sperm clumping,post-infusion,severe sperm clumping
same,potential contraceptive window following administration,rhesus,24 to 48 h
same,time necessary for sperm velocity to recover completely,rhesus,more than 3 weeks
